PMC11209911 (ACS Omega, 2024)

Biological target: α-glucosidase
Experiment: α-glucosidase inhibitor screening kit
Assay type: biochemical

## C=C/C=C(\C)CC[C@@H]1C[C@@H](O)CC(=O)O1 [30b, (4R,6R)-4-Hydroxy-6-((E)-3-methylhexa-3,5-dien-1-yl)tetrahydro-2H-pyran-2-one]
  IC50: 66.1 µM
